The values that follow come from ChEMBL document CHEMBL2203043, “Carbonic anhydrase inhibitors. Regioselective synthesis of novel series 1-substituted 1,4-dihydro-4-oxo-3-pyridinesulfonamides and their inhibition of the human cytosolic isozymes I and II and transmembrane cancer-associated isozymes IX and XII” (Eur J Med Chem, 2012).

Molecules are shown by their SMILES.

One assay deals with Carbonic anhydrase 9 (Homo sapiens, UniProt Q16790). Kind of assay: Inhibition of human CA9 after 15 mins by stopped-flow CO2 hydrase assay.
Take `CN(C)c1nc(N)nc(Cn2ccc(=O)c(S(N)(=O)=O)c2)n1`: the Ki (as a rule, a dissociation constant, usually derived from enzyme kinetics or from competition with a known ligand) came to 16.5 nM. Regarding `CCOC(=O)Cn1ccc(=O)c(S(N)(=O)=O)c1`, the inhibition constant Ki was 60.1 nM. On the same count and under the same terms, in the case of `NS(=O)(=O)c1cn(CC(=O)NS(=O)(=O)c2ccc(Cl)cc2)ccc1=O` it was 38.6 nM. Same read-out and setting: in the case of `Cc1ccc(-n2c(Cn3ccc(=O)c(S(N)(=O)=O)c3)nc3ccccc3c2=O)cc1` it was 70.3 nM; in that of `N#CCCCn1ccc(=O)c(S(N)(=O)=O)c1`, 67.2 nM; in that of `NS(=O)(=O)c1cn(CC(=O)Nc2ccc(Cl)cc2)ccc1=O`, 93.4 nM.

Regarding `NS(=O)(=O)c1cn(Cc2nc3ccccc3c(=O)n2-c2ccc(Cl)cc2)ccc1=O`, affinity was put at a Ki of 71.2 nM. On to `NS(=O)(=O)c1cn(CC2CC2)ccc1=O`, for which the Ki was 85.1 nM. The same measure, in the same setting: in the case of `NS(=O)(=O)c1cn(CC(=O)Nc2cccc([N+](=O)[O-])c2)ccc1=O` it was 33.4 nM; in that of `COC(=O)c1ccccc1NC(=O)Cn1ccc(=O)c(S(N)(=O)=O)c1`, 86.4 nM; in that of `Cc1noc(C)c1Cn1ccc(=O)c(S(N)(=O)=O)c1`, 23.1 nM. On the same count and under the same terms, in the case of `CC1=NN(c2nc(N)nc(Cn3ccc(=O)c(S(N)(=O)=O)c3)n2)CC1` it was 77.8 nM. In turn, `NS(=O)(=O)c1cn(CCO)ccc1=O` registered an inhibitory constant (Ki) of 54.7 nM. Compound `Cc1ccc(S(=O)(=O)NNC(=O)Cn2ccc(=O)c(S(N)(=O)=O)c2)cc1` gave a Ki of 11.8 nM. As to `CC1=NN(c2nc(N)nc(Cn3ccc(=O)c(S(N)(=O)=O)c3)n2)C(C)(C)C1`, the affinity corresponds to a Ki of 66.3 nM.

Consider `NS(=O)(=O)c1cn(CC(=O)Nc2ccc(Cl)c([N+](=O)[O-])c2)ccc1=O`, for which the inhibition constant Ki is 60.6 nM. Still for that read-out and setting: to `Cc1cccc(C)c1NC(=O)Cn1ccc(=O)c(S(N)(=O)=O)c1` belongs 17.3 nM. As for `NS(=O)(=O)c1cn(CC(=O)NS(=O)(=O)c2ccc([N+](=O)[O-])cc2)ccc1=O`, the Ki came to 65.2 nM. `CCN(c1ccccc1)c1nc(N)nc(Cn2ccc(=O)c(S(N)(=O)=O)c2)n1` gave an inhibition constant Ki of 50.1 nM.

For `NS(=O)(=O)c1cn(Cc2nc3ccccc3c(=O)n2-c2ccccc2)ccc1=O`, the affinity, expressed as Ki, was 76.2 nM.

`Nc1nc(Cn2ccc(=O)c(S(N)(=O)=O)c2)nc(N2CCOCC2)n1` had a Ki of 72.5 nM.

Compound `NS(=O)(=O)c1cn(CC(=O)NS(=O)(=O)c2ccccc2Cl)ccc1=O` displayed an inhibitory constant (Ki) of 29.7 nM. The same measure, in the same setting: to `NS(=O)(=O)c1cn(CC(=O)NNC(=O)c2ccco2)ccc1=O` belongs 56.1 nM.

Another assay is filed under the species Homo sapiens. Briefly: Selectivity ratio of Ki for human CA2 to Ki for human CA9.
Regarding `CCOc1ccc2nc(S(N)(=O)=O)sc2c1`, the Ratio Ki came to 0.33. The same measure, in the same setting: in the case of `CC(=O)/N=c1/sc(S(N)(=O)=O)nn1C` it was 0.33; in that of `NS(=O)(=O)c1ccc(S(=O)(=O)Nc2cccc3c(Cl)c[nH]c23)cc1`, 0.33; in that of `NS(=O)(=O)c1cc(Cl)c(Cl)c(S(N)(=O)=O)c1`, 0.33. Turning to `CC(=O)Nc1nnc(S(N)(=O)=O)s1`, the Ratio Ki turned out to be 0.33.
